This is an account of results in patent US6613901B2, “2-aminoalkylaminoquinolines as dopamine D4 ligands” (Neurogen Corporation, priority 1998, dated 2003).

Structures can show the parent of a compound that is named as a salt.

One data set deals with T1, D2 receptors (Chlorocebus aethiops, UniProt P52702).
T1 construct: expressed in transfected cells; host or cells: COS cells
The experiment in a line: D2 receptor binding assay (3H-YM 09151-2). The settings on record: Table 1; COS cell pellets with recombinant receptor, 0.5 nM 3H-YM 09151-2. Further details: species or system African Green monkey. Here is the method: (§1) Assay for D2 and D4 Receptor Binding Activity
(§2) Pellets of COS cells containing recombinantly produced D2 or D4 receptors from African Green monkey were used for the assays. The sample is homogenized in 100 volumes (w/vol) of 0.05 M Tris HCl buffer at 4° C. and pH 7.4. The sample is then centrifuged at 30,000×g and resuspended and rehomogenized. The sample is then centrifuged as described and the final tissue sample is frozen until use. The tissue is resuspended 1:20 (wt/vol) in 0.05 M Tris HCl buffer containing 100 mM NaCl.

For another data set, the target named is T2, M1 Muscarinic subtype (Homo sapiens, UniProt P11229).
T2 sequence (P11229 1-460): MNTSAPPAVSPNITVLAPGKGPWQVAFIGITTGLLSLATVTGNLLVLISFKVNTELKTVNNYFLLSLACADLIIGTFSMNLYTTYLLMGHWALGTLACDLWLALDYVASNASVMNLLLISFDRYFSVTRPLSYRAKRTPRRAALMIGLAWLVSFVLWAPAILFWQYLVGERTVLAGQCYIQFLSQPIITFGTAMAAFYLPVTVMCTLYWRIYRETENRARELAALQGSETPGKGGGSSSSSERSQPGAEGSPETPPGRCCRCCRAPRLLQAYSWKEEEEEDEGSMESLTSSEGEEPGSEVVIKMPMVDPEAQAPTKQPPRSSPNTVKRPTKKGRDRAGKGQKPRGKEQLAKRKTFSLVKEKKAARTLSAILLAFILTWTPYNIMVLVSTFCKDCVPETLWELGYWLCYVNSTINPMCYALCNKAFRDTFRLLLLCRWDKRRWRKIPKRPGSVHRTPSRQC
The experiment in a line: M1 Muscarinic subtype assay per U.S. Pat. No. 5,093,333. In kind it is binding. Conditions: Table 1.

In a further data set the target is T3, M2 Muscarinic subtype (Homo sapiens, UniProt P08172).
T3 sequence (P08172 1-466): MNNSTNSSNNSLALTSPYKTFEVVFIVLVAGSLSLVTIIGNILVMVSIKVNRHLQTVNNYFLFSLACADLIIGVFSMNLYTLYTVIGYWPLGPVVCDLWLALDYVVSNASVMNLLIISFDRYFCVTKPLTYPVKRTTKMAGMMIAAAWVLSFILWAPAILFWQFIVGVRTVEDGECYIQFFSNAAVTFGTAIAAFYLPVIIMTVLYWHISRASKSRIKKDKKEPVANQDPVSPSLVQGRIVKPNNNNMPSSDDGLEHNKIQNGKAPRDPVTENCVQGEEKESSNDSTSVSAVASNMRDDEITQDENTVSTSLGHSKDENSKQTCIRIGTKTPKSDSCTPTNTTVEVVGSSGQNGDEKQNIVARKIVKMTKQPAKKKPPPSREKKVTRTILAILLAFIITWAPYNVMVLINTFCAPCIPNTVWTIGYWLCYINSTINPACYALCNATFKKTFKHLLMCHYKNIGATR
The data set can be described thus: M2 Muscarinic subtype assay per U.S. Pat. No. 5,093,333. In kind it is binding. The settings on record: Table 1.

A further data set concerns the target D4 receptors (Chlorocebus aethiops, UniProt A0A0D9REG7). The experiment in a line: D4 receptor binding assay (3H-YM 09151-2). Further details: species or system African Green monkey. The settings on record: Table 1; COS cell pellets with recombinant receptor, 0.5 nM 3H-YM 09151-2; read-out: D4 K1. Here is the method:
as §1, §2

Chain of D4 receptors (A0A0D9REG7 entry or part of it): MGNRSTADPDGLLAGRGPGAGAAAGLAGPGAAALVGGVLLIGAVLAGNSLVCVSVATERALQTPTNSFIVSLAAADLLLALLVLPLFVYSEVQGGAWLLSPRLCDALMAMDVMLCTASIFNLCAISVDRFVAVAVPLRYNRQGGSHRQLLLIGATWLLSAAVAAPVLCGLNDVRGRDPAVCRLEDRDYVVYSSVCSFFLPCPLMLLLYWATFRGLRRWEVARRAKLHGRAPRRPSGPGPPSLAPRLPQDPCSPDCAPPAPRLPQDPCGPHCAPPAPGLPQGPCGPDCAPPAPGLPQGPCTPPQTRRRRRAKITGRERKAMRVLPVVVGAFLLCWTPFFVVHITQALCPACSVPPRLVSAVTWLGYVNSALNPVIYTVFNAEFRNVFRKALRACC
T1 sequence (P52702 whole entry): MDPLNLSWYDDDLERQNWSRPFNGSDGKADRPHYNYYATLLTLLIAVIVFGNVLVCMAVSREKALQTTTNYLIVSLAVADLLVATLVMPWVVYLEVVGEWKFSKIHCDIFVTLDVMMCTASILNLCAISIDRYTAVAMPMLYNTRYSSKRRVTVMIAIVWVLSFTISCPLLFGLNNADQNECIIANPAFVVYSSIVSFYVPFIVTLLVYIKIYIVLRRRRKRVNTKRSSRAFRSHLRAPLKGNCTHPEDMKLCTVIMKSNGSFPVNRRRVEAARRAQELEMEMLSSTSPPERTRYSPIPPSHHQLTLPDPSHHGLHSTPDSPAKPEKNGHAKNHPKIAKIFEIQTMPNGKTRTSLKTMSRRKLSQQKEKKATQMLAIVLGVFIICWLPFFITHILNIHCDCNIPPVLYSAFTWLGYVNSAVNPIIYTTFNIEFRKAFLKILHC

In turn, `OC1(c2ccccc2)CCN(CCCNC2=Nc3ccccc3CC2)CC1` (as salt: hydrobromid) returned a melting point of 247 °C. In the case of `OC1(c2ccc(Cl)cc2)CCN(CCCNC2=Nc3ccccc3CC2)CC1` (as salt: hydrobromid), the melting point is over 260 °C.

Consider `c1cnc(N2CCN(CCNc3ccc4ccccc4n3)CC2)nc1` [Compound 1, (2-(4-pyrimidin-2-ylpiperazinyl)ethyl)-2-quinolylamine], for which the Ki on D2 receptors was 2720 nM. In addition, at M1 Muscarinic subtype, the “M1” value was determined as 264 nM. Besides, on M2 Muscarinic subtype, the “M2” value was determined as 299 nM. For the compound `c1ccc(N2CCN(CCNC3=Nc4ccccc4CC3)CC2)nc1` [Compound 2, 2-3,4-dihydroquinolyl(2-(4-(2-pyridyl)piperazinyl)ethyl)amine], the Ki at D2 receptors was over 100 nM. Regarding `Fc1cnc(N2CCN(CCNC3=Nc4ccccc4CC3)CC2)nc1` [Compound 3, 2-3,4-dihydroquinolyl(2-(4-(5-fluoropyrimidin-2-yl)piperazinyl)ethyl)amine], the “M1” value on M1 Muscarinic subtype came to 128 nM. In addition, at M2 Muscarinic subtype, the “M2” value stood at 144 nM.

For the compound “(3-(4-(2,3-dimethylphenyl)piperazinyl)propyl)-2-quinolylamine [Compound 21]”, the Ki was over 100 nM at D2 receptors and 22 nM on D4 receptors. As for “(4-methyl(2-quinolyl))(3-(4-(pyrimidin-2-yl)piperazinyl)propyl)amine [Compound 22]”, the Ki was 3300 nM at D2 receptors and 10 nM on D4 receptors. For the compound “(4methyl(2-quinolyl))(2-(4-pyrimidin-2-ylpiperazinyl)ethyl)amine hydrobromide [Compound 11]”, the Ki at D4 receptors is 10 nM. The “M1” value at M1 Muscarinic subtype is 178 nM. Further, the “M2” value on M2 Muscarinic subtype worked out at 246 nM.

As usually defined, the melting point is the temperature, or range, at which the solid turns liquid.
